Counter-ions that a name gives are not always drawn.
Target: T1, sigma-1 receptor (Cavia porcellus, UniProt Q60492)
T1 construct: Guinea pig brains were homogenized in 10 vols; (w/v) of Tris-HCl 50 mM 0.32 M sucrose, pH 7.4; from tissue; host or cells: guinea pig brain membranes
Test: Sigma-1 receptor binding assay, [3H]-(+)-pentazocine, guinea pig brain membranes
Conditions: radioligand [3H]-(+)-pentazocine 5.0 nM, 150 min at 37° C., nonspecific binding with 1 μM haloperidol
Procedure: Brain membrane preparation and binding assays for the […] were performed as described (DeHaven-Hudkins, D. L., L. C. Fleissner, and F. Y. Ford-Rice, 1992, Characterization of the binding of [^3H](+)pentazocine to α recognition sites in guinea pig brain, Eur. J. Pharmacol. 227, 371-378) with some modifications. Guinea pig brains were homogenized in 10 vols. (w/v) of Tris-HCl 50 mM 0.32 M sucrose, pH 7.4, with a Kinematica Polytron PT 3000 at 15000 r.p.m. for 30 s. The homogenate was centrifuged at 1000 g for 10 min at 4° C. and the supernatants collected and centrifuged again at 48000 g for 15 min at 4° C. The pellet was resuspended in 10 volumes of Tris-HCl buffer (50 mM, pH 7.4), incubated at 37° C. for 30 min, and centrifuged at 48000 g for 20 min at 4° C. Following this, the pellet was re-suspended in fresh Tris-HCl buffer (50 mM, pH 7.4) and stored on ice until use.
The radioligand used was [^3H]-(+)-pentazocine at 5.0 nM and the final volume was 200 μl. The incubation was initiated with the addition of 100 μl of membrane at a final tissue concentration of approximately 5 mg tissue net weight/mL and the incubation time was 150 m. at 37° C. After incubation, the membranes were collected onto pretreated glass fiber filterplate (MultiScreen-FC, Millipore), with polyethylenimine 0.1%. The filters were washed two times with 200 μl of washing buffer (50 mM Tris Cl, pH=7.4) and then 25 μl of Ecoscint H liquid scintillation cocktail were added. Microplates were allowed to set for several hours and then quantified by liquid scintillation spectrophotometry (1450 Microbeta, Wallac). Nonspecific binding was determined with 1 μM haloperidol.

T1 sequence (Q60492 whole entry): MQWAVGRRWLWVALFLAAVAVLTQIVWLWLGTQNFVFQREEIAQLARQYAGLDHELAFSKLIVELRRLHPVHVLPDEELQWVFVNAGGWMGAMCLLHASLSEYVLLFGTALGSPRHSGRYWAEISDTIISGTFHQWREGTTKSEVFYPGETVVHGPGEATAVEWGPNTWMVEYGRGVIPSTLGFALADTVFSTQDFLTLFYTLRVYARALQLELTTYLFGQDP

Row | Compound | Ki
1 | Cc1cccc(-c2ncnc3c2cnn3CCN2CCCCC2)c1 [Example 3, 1-(2-(piperidin-1-yl)ethyl)-4-m-tolyl-1H-pyrazolo[3,4-d]pyrimidine hydrochloride] | 82.5 nM
2 | Cc1noc(C)c1-c1ncnc2c1cnn2CCN1CCCCC1 [Example 6, 3,5-dimethyl-4-(1-(2-(piperidin-1-yl)ethyl)-1H-pyrazolo[3,4-d]pyrimidin-4-yl)isoxazole hydrochloride] | 72.4 nM
3 | Fc1ccc(-c2ncnc3c2cnn3CCN2CCCCC2)cc1 [Example 14, 4-(4-fluorophenyl)-1-(2-(piperidin-1-yl)ethyl)-1H-pyrazolo[3,4-d]pyrimidine] | 95.4 nM
4 | COc1ncccc1-c1ncnc2c1cnn2CCN1CCCCC1 [Example 11, 4-(2-methoxypyridin-3-yl)-1-(2-(piperidin-1-yl)ethyl)-1H-pyrazolo[3,4-d]pyrimidine (L)-tartrate] | 151 nM
5 | Cc1ccc(Cl)c(-c2ncnc3c2cnn3CCN2CCCCC2)c1 [Example 25, 4-(2-chloro-5-methylphenyl)-1-(2-(piperidin-1-yl)ethyl)-1H-pyrazolo[3,4-d]pyrimidine] | 31.2 nM
6 | Cn1nc(C(F)(F)F)cc1-c1ncnc2c1cnn2CCN1CCCCC1 [Example 16, 4-(1-methyl-3-(trifluoromethyl)-1H-pyrazol-5-yl)-1-(2-(piperidin-1-yl)ethyl)-1H-pyrazolo[3,4-d]pyrimidine] | 137 nM
7 | Clc1ccc(-c2ncnc3c2cnn3CCN2CCCCC2)cc1 [Example 21, 4-(4-chlorophenyl)-1-(2-(piperidin-1-yl)ethyl)-1H-pyrazolo[3,4-d]pyrimidine] | 42.6 nM
8 | Clc1ccc(-c2ncnc3c2cnn3CCN2CCCCC2)s1 [Example 20, 4-(5-chlorothiophen-2-yl)-1-(2-(piperidin-1-yl)ethyl)-1H-pyrazolo[3,4-d]pyrimidine] | 35 nM
9 | c1ccc(-c2ncnc3c2cnn3CCN2CCCCC2)cc1 [Example 1, 4-phenyl-1-(2-(piperidin-1-yl)ethyl)-1H-pyrazolo[3,4-d]pyrimidine] | 99.6 nM
10 | COc1ncccc1-c1ncnc2c1cnn2CCN1CCCCC1 [Example 10, 4-(2-methoxypyridin-3-yl)-1-(2-(piperidin-1-yl)ethyl)-1H-pyrazolo[3,4-d]pyrimidine] | 112 nM
11 | COc1cc(F)ccc1-c1ncnc2c1cnn2CCN1CCCCC1 [Example 28, 4-(4-fluoro-2-methoxyphenyl)-1-(2-(piperidin-1-yl)ethyl)-1H-pyrazolo[3,4-d]pyrimidine] | 39.2 nM
12 | Cc1cncc(-c2ncnc3c2cnn3CCN2CCCCC2)c1 [Example 18, 4-(5-methylpyridin-3-yl)-1-(2-(piperidin-1-yl)ethyl)-1H-pyrazolo[3,4-d]pyrimidine] | 447 nM
13 | CCOc1ccccc1-c1ncnc2c1cnn2CCN1CCCCC1 [Example 13, 4-(2-ethoxyphenyl)-1-(2-(piperidin-1-yl)ethyl)-1H-pyrazolo[3,4-d]pyrimidine hydrochloride] | 300 nM
14 | Cc1cc(F)ccc1-c1ncnc2c1cnn2CCN1CCCCC1 [Example 29, 4-(4-fluoro-2-methylphenyl)-1-(2-(piperidin-1-yl)ethyl)-1H-pyrazolo[3,4-d]pyrimidine] | 48.4 nM
15 | Cc1ccc(C)c(-c2ncnc3c2cnn3CCN2CCCCC2)c1 [Example 26, 4-(2,5-dimethylphenyl)-1-(2-(piperidin-1-yl)ethyl)-1H-pyrazolo[3,4-d]pyrimidine] | 55.4 nM
16 | Cc1ccccc1-c1ncnc2c1cnn2CCN1CCCCC1 [Example 2, 1-(2-(piperidin-1-yl)ethyl)-4-o-tolyl-1H-pyrazolo[3,4-d]pyrimidine] | 73.8 nM
17 | Cn1cccc1-c1ncnc2c1cnn2CCN1CCCCC1 [Example 27, 4-(1-methyl-1H-pyrrol-2-yl)-1-(2-(piperidin-1-yl)ethyl)-1H-pyrazolo[3,4-d]pyrimidine] | 31.5 nM

The next lines start with the values.

Row | Ki | Compound
18 | 27 nM | Fc1ccc(-c2ncnc3c2cnn3CCN2CCCCC2)c(Cl)c1 [Example 42, 4-(2-chloro-4-fluorophenyl)-1-(2-(piperidin-1-yl)ethyl)-1H-pyrazolo[3,4-d]pyrimidine]
19 | 318 nM | Fc1ccc(-c2ncnc3c2cnn3CCN2CCC(F)(F)CC2)c(Cl)c1 [Example 44, 4-(2-chloro-4-fluorophenyl)-1-(2-(4,4-difluoropiperidin-1-yl)ethyl)-1H-pyrazolo[3,4-d]pyrimidine]
20 | 125 nM | FC(F)(F)c1ccccc1-c1ncnc2c1cnn2CCN1CCCCC1 [Example 38, 1-(2-(piperidin-1-yl)ethyl)-4-(2-(trifluoromethyl)phenyl)-1H-pyrazolo[3,4-d]pyrimidine]
21 | 112 nM | Fc1cc(Cl)ccc1-c1ncnc2c1cnn2CCN1CCCCC1 [Example 46, 4-(4-chloro-2-fluorophenyl)-1-(2-(piperidin-1-yl)ethyl)-1H-pyrazolo[3,4-d]pyrimidine]
22 | 57 nM | Fc1ccc(-c2ncnc3c2cnn3CCN2CCCCC2)c(C(F)(F)F)c1 [Example 34, 4-(4-fluoro-2-(trifluoromethyl)phenyl)-1-(2-(piperidin-1-yl)ethyl)-1H-pyrazolo[3,4-d]pyrimidine]
23 | 61.7 nM | CN(CCn1ncc2c(-c3ccc(F)cc3Cl)ncnc21)Cc1ccc(F)cc1 [Example 49, 2-(4-(2-chloro-4-fluorophenyl)-1H-pyrazolo[3,4-d]pyrimidin-1-yl)-N-(4-fluorobenzyl)-N-methylethanamine]
24 | 81.6 nM | Fc1ccc(-c2ncnc3c2cnn3CCN2CCCCC2)c(F)c1 [Example 39, 4-(2,4-difluorophenyl)-1-(2-(piperidin-1-yl)ethyl)-1H-pyrazolo[3,4-d]pyrimidine]
25 | 75.7 nM | Clc1ccccc1-c1ncnc2c1cnn2CCN1CCCCC1 [Example 35, 4-(2-chlorophenyl)-1-(2-(piperidin-1-yl)ethyl)-1H-pyrazolo[3,4-d]pyrimidine]
26 | 34.1 nM | CN(CCn1ncc2c(-c3ccnn3C)ncnc21)Cc1ccc(F)cc1 [Example 48, N-(4-fluorobenzyl)-N-methyl-2-(4-(1-methyl-1H-pyrazol-5-yl)-1H-pyrazolo[3,4-d]pyrimidin-1-yl)ethanamine]
27 | 475 nM | c1nc(-c2cnsc2)c2cnn(CCN3CCCCC3)c2n1 [Example 36, 4-(1-(2-(piperidin-1-yl)ethyl)-1H-pyrazolo[3,4-d]pyrimidin-4-yl)isothiazole]
28 | 76.6 nM | CN(CCn1ncc2c(-c3ccccc3Cl)ncnc21)Cc1ccc(F)cc1 [Example 47, 2-(4-(2-chlorophenyl)-1H-pyrazolo[3,4-d]pyrimidin-1-yl)-N-(4-fluorobenzyl)-N-methylethanamine]

From patent US9278974B2, “Substituted pyrazolo[3,4-d]pyrimidine compounds, their preparation and use as sigma receptors ligands” (LABORATORIOS DEL DR. ESTEVE S.A., priority 2012, dated 2016)
